In publication PMC7531004, “Discovery of gramicidin A analogues with altered activities by multidimensional screening of a one-bead-one-compound library” (Nature Communications, 2020):
Where a SMILES comes first, the peptide text is derived from it. [ ]: non-standard residue; d: D form. The star is where a group is joined. NHCH2CH2OH = OCCN*; For = O=C*

Assays:
[1] = tested on: P388 mouse leukemia cells; conditions: 92 h
Method in brief: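 P388 cells at 1 × 10^4 cells/mL (final) were exposed to library peptides (stocks diluted 250-fold in RPMI1640/10% FBS) for 92 h at 37 °C, 5% CO2. Viable cells were counted by WST-1/1-methoxy PMS (4 h), absorbance 415 nm, and expressed as cell viability (%).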

[2] = H+/Na+ transport assay of bead-derived peptides (one-point); format: biochemical; set-up: key: relative activity; mean of two control wells = 1.00; conditions: bead-derived peptide solution, EYPC/EYPG LUVs;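 note: relative to parent gramicidin A activity set to 1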
Method in brief: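 Values are normalized fluorescence, with Triton X-100 defining 100% and untreated LUVs 0%, and the two control wells averaging 1.00. Vesicles carried 1.0 mM pyranine and included egg yolk phosphatidylglycerol. Peptides were incubated with them 30 min at room temperature.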

[3] = tested on: Streptococcus pyogenes SSI-9; assay: Antibacterial activity assay of bead-derived peptides (three concentrations); format: cell-based; set-up: key: +++: inhibition by the 640-fold diluted peptide solution; ++: inhibition by the 160-fold diluted solution; +: inhibition by the 40-fold diluted solution; -: no inhibition; conditions: S. pyogenes, bead-derived peptide solution, three concentrations
Method in brief: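 Library peptide stock applied undiluted, 4-fold and 16-fold diluted in DMSO to S. pyogenes SSI-9 (2 × 10^5 CFU) in cation-adjusted Mueller Hinton broth with 5% laked horse blood. After 18 h at 37 °C, growth judged by visible cell precipitation.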

## CC(C)C[C@@H](NC(=O)[C@H](Cc1c[nH]c2ccccc12)NC(=O)[C@H](NC(=O)[C@H](Cc1c[nH]c2ccccc12)NC(=O)[C@@H](CC(C)C)NC(=O)[C@@H](NC(=O)[C@H](NC(=O)[C@H](C)NC(=O)[C@H](NC(=O)[C@H](C)NC(=O)CNC(=O)[C@@H](NC=O)C(C)C)[C@H](C)O)C(C)C)C(C)C)C(C)C)C(=O)N[C@@H](Cc1c[nH]c2ccccc12)C(=O)N[C@@H](C(=O)N[C@@H](Cc1c[nH]c2ccccc12)C(=O)NCCO)C(C)C [compound 11238] (For-VGA[dT]A[dV]V[dL]W[dV]W[dL]W[dV]W-NHCH2CH2OH)
[1]
  cell viability/%: 64.7%
[2]
  H+/Na+ transport activity normalized against the value of 1 (1.00): 1.03
[3]
  antibacterial activity: -

## CNC(=O)C[C@@H](NC(=O)[C@H](Cc1c[nH]c2ccccc12)NC(=O)[C@H](NC(=O)[C@H](Cc1c[nH]c2ccccc12)NC(=O)[C@H](NC(=O)[C@H](Cc1c[nH]c2ccccc12)NC(=O)[C@@H](CC(C)C)NC(=O)[C@@H](NC(=O)[C@H](NC(=O)[C@H](C)NC(=O)[C@@H](CC(C)C)NC(=O)[C@H](C)NC(=O)CNC(=O)[C@@H](NC=O)C(C)C)C(C)C)C(C)C)C(C)C)C(C)C)C(=O)N[C@@H](Cc1c[nH]c2ccccc12)C(=O)NCCO [compound 4808] (For-VGA[dL]A[dV]V[dL]W[dV]W[dV]W[dD](NHMe)W-NHCH2CH2OH)
[1]
  cell viability/%: 100.0%
[2]
  H+/Na+ transport activity normalized against the value of 1 (1.00): 1.02
[3]
  antibacterial activity: -

## CC(C)C[C@@H](NC(=O)[C@H](C)NC(=O)[C@H](NC(=O)[C@H](C)NC(=O)CNC(=O)[C@@H](NC=O)C(C)C)C(C)C)C(=O)N[C@H](C(=O)N[C@@H](C(=O)N[C@@H](Cc1c[nH]c2ccccc12)C(=O)N[C@@H](C(=O)N[C@@H](Cc1c[nH]c2ccccc12)C(=O)N[C@H](CC(C)C)C(=O)N[C@@H](Cc1c[nH]c2ccccc12)C(=O)N[C@@H](C(=O)N[C@@H](Cc1c[nH]c2ccccc12)C(=O)NCCO)C(C)C)C(C)C)C(C)C)C(C)C [compound 12950] (For-VGA[dV]A[dL]V[dV]W[dV]W[dL]W[dV]W-NHCH2CH2OH)
[1]
  cell viability/%: 97.0%
[2]
  H+/Na+ transport activity normalized against the value of 1 (1.00): 1.08
[3]
  antibacterial activity: +

## CNC(=O)C[C@@H](NC(=O)[C@@H](NC(=O)[C@@H](CC(C)C)NC(=O)[C@H](C)NC(=O)[C@@H](CC(C)C)NC(=O)[C@H](C)NC(=O)CNC(=O)[C@@H](NC=O)C(C)C)C(C)C)C(=O)N[C@@H](Cc1c[nH]c2ccccc12)C(=O)N[C@H](CC(C)C)C(=O)N[C@@H](Cc1c[nH]c2ccccc12)C(=O)N[C@@H](C(=O)N[C@@H](Cc1c[nH]c2ccccc12)C(=O)N[C@H](CC(C)C)C(=O)N[C@@H](Cc1c[nH]c2ccccc12)C(=O)NCCO)C(C)C [compound 2953] (For-VGA[dL]A[dL]V[dD](NHMe)W[dL]W[dV]W[dL]W-NHCH2CH2OH)
[1]
  cell viability/%: 100.0%
[2]
  H+/Na+ transport activity normalized against the value of 1 (1.00): 1.20
[3]
  antibacterial activity: -

## CC(C)C[C@@H](NC(=O)[C@H](C)NC(=O)CNC(=O)[C@@H](NC=O)C(C)C)C(=O)N[C@@H](C)C(=O)N[C@@H](C(=O)N[C@H](C(=O)N[C@@H](C(=O)N[C@@H](Cc1c[nH]c2ccccc12)C(=O)N[C@@H](C(=O)N[C@@H](Cc1c[nH]c2ccccc12)C(=O)N[C@H](CC(C)C)C(=O)N[C@@H](Cc1c[nH]c2ccccc12)C(=O)N[C@@H](C(=O)N[C@@H](Cc1c[nH]c2ccccc12)C(=O)NCCO)C(C)C)C(C)C)[C@H](C)O)C(C)C)C(C)C [compound 5167] (For-VGA[dL]A[dV]V[dT]W[dV]W[dL]W[dV]W-NHCH2CH2OH)
[1]
  cell viability/%: 100.0%
[2]
  H+/Na+ transport activity normalized against the value of 1 (1.00): 1.33
[3]
  antibacterial activity: -

## CNC(=O)C[C@@H](NC(=O)[C@@H](NC(=O)[C@@H](CC(C)C)NC(=O)[C@H](C)NC(=O)[C@H](NC(=O)[C@H](C)NC(=O)CNC(=O)[C@@H](NC=O)C(C)C)C(C)C)C(C)C)C(=O)N[C@@H](Cc1c[nH]c2ccccc12)C(=O)N[C@@H](C(=O)N[C@@H](Cc1c[nH]c2ccccc12)C(=O)N[C@@H](C(=O)N[C@@H](Cc1c[nH]c2ccccc12)C(=O)N[C@H](CC(C)C)C(=O)N[C@@H](Cc1c[nH]c2ccccc12)C(=O)NCCO)C(C)C)C(C)C [compound 11226] (For-VGA[dV]A[dL]V[dD](NHMe)W[dV]W[dV]W[dL]W-NHCH2CH2OH)
[1]
  cell viability/%: 76.8%
[2]
  H+/Na+ transport activity normalized against the value of 1 (1.00): 1.04
[3]
  antibacterial activity: -

## CC(C)C[C@@H](NC(=O)[C@H](C)NC(=O)CNC(=O)[C@@H](NC=O)C(C)C)C(=O)N[C@@H](C)C(=O)N[C@H](CC(C)C)C(=O)N[C@H](C(=O)N[C@@H](C(=O)N[C@@H](Cc1c[nH]c2ccccc12)C(=O)N[C@@H](C(=O)N[C@@H](Cc1c[nH]c2ccccc12)C(=O)N[C@@H](C(=O)N[C@@H](Cc1c[nH]c2ccccc12)C(=O)N[C@H](CC(C)C)C(=O)N[C@@H](Cc1c[nH]c2ccccc12)C(=O)NCCO)[C@H](C)O)C(C)C)C(C)C)C(C)C [compound 8498] (For-VGA[dL]A[dL]V[dV]W[dV]W[dT]W[dL]W-NHCH2CH2OH)
[1]
  cell viability/%: 52.6%
[2]
  H+/Na+ transport activity normalized against the value of 1 (1.00): 1.01
[3]
  antibacterial activity: -

## CC(C)C[C@@H](NC(=O)[C@H](C)NC(=O)[C@H](NC(=O)[C@H](C)NC(=O)CNC(=O)[C@@H](NC=O)C(C)C)C(C)C)C(=O)N[C@H](C(=O)N[C@@H](C(=O)N[C@@H](Cc1c[nH]c2ccccc12)C(=O)N[C@H](CC(C)C)C(=O)N[C@@H](Cc1c[nH]c2ccccc12)C(=O)N[C@H](CC(C)C)C(=O)N[C@@H](Cc1c[nH]c2ccccc12)C(=O)N[C@@H](C(=O)N[C@@H](Cc1c[nH]c2ccccc12)C(=O)NCCO)C(C)C)C(C)C)C(C)C [compound 9535] (For-VGA[dV]A[dL]V[dV]W[dL]W[dL]W[dV]W-NHCH2CH2OH)
[1]
  cell viability/%: 3.8%
[2]
  H+/Na+ transport activity normalized against the value of 1 (1.00): 1.16
[3]
  antibacterial activity: -

## CNC(=O)C[C@@H](NC(=O)[C@H](Cc1c[nH]c2ccccc12)NC(=O)[C@H](NC(=O)[C@H](Cc1c[nH]c2ccccc12)NC(=O)[C@@H](CC(C)C)NC(=O)[C@H](Cc1c[nH]c2ccccc12)NC(=O)[C@@H](CC(C)C)NC(=O)[C@@H](NC(=O)[C@@H](CC(C)C)NC(=O)[C@H](C)NC(=O)[C@@H](CC(C)C)NC(=O)[C@H](C)NC(=O)CNC(=O)[C@@H](NC=O)C(C)C)C(C)C)C(C)C)C(=O)N[C@@H](Cc1c[nH]c2ccccc12)C(=O)NCCO [compound 10008] (For-VGA[dL]A[dL]V[dL]W[dL]W[dV]W[dD](NHMe)W-NHCH2CH2OH)
[1]
  cell viability/%: 100.0%
[2]
  H+/Na+ transport activity normalized against the value of 1 (1.00): 1.15
[3]
  antibacterial activity: -

## CC(C)C[C@@H](NC(=O)[C@H](Cc1c[nH]c2ccccc12)NC(=O)[C@@H](CC(C)C)NC(=O)[C@@H](NC(=O)[C@H](NC(=O)[C@H](C)NC(=O)[C@H](NC(=O)[C@H](C)NC(=O)CNC(=O)[C@@H](NC=O)C(C)C)[C@H](C)O)C(C)C)C(C)C)C(=O)N[C@@H](Cc1c[nH]c2ccccc12)C(=O)N[C@@H](C(=O)N[C@@H](Cc1c[nH]c2ccccc12)C(=O)N[C@@H](C(=O)N[C@@H](Cc1c[nH]c2ccccc12)C(=O)NCCO)C(C)C)C(C)C [compound 11772] (For-VGA[dT]A[dV]V[dL]W[dL]W[dV]W[dV]W-NHCH2CH2OH)
[1]
  cell viability/%: 100.0%
[2]
  H+/Na+ transport activity normalized against the value of 1 (1.00): 1.04
[3]
  antibacterial activity: -

## CNC(=O)C[C@@H](NC(=O)[C@@H](NC(=O)[C@@H](CC(C)C)NC(=O)[C@H](C)NC(=O)[C@@H](CC(C)C)NC(=O)[C@H](C)NC(=O)CNC(=O)[C@@H](NC=O)C(C)C)C(C)C)C(=O)N[C@@H](Cc1c[nH]c2ccccc12)C(=O)N[C@H](CC(C)C)C(=O)N[C@@H](Cc1c[nH]c2ccccc12)C(=O)N[C@@H](C(=O)N[C@@H](Cc1c[nH]c2ccccc12)C(=O)N[C@H](CC(C)C)C(=O)N[C@@H](Cc1c[nH]c2ccccc12)C(=O)NCCO)C(C)C [compound 8600] (For-VGA[dL]A[dL]V[dD](NHMe)W[dL]W[dV]W[dL]W-NHCH2CH2OH)
[1]
  cell viability/%: 55.3%
[2]
  H+/Na+ transport activity normalized against the value of 1 (1.00): 1.20
[3]
  antibacterial activity: -

## CC(C)C[C@@H](NC(=O)[C@H](C)NC(=O)[C@H](NC(=O)[C@H](C)NC(=O)CNC(=O)[C@@H](NC=O)C(C)C)C(C)C)C(=O)N[C@H](C(=O)N[C@@H](C(=O)N[C@@H](Cc1c[nH]c2ccccc12)C(=O)N[C@H](CC(C)C)C(=O)N[C@@H](Cc1c[nH]c2ccccc12)C(=O)N[C@@H](C(=O)N[C@@H](Cc1c[nH]c2ccccc12)C(=O)N[C@@H](C(=O)N[C@@H](Cc1c[nH]c2ccccc12)C(=O)NCCO)C(C)C)C(C)C)[C@H](C)O)C(C)C [compound 3375] (For-VGA[dV]A[dL]V[dT]W[dL]W[dV]W[dV]W-NHCH2CH2OH)
[1]
  cell viability/%: 100.0%
[2]
  H+/Na+ transport activity normalized against the value of 1 (1.00): 1.29
[3]
  antibacterial activity: -

## CC(C)C[C@@H](NC(=O)[C@H](C)NC(=O)CNC(=O)[C@@H](NC=O)C(C)C)C(=O)N[C@@H](C)C(=O)N[C@@H](C(=O)N[C@H](C(=O)N[C@@H](C(=O)N[C@@H](Cc1c[nH]c2ccccc12)C(=O)N[C@H](CC(C)C)C(=O)N[C@@H](Cc1c[nH]c2ccccc12)C(=O)N[C@@H](C(=O)N[C@@H](Cc1c[nH]c2ccccc12)C(=O)N[C@H](CC(C)C)C(=O)N[C@@H](Cc1c[nH]c2ccccc12)C(=O)NCCO)C(C)C)[C@H](C)O)C(C)C)C(C)C [compound 12185] (For-VGA[dL]A[dV]V[dT]W[dL]W[dV]W[dL]W-NHCH2CH2OH)
[1]
  cell viability/%: 98.1%
[2]
  H+/Na+ transport activity normalized against the value of 1 (1.00): 1.02
[3]
  antibacterial activity: +
